Key:
[1] = system: NIH3T3 cell line and mouse mesenchymal stem cells (mMSCs); test: Cell penetrating effect (FACS, confocal microscopy) of FITC-attached peptides; assay type: cell-based; conditions: compared to LPX101 (2 μM)
From the text: A cell penetrating effect was confirmed in penetrating peptides LPX101 (SEQ ID NO: 11), LPX102 (SEQ ID NO: 12), and LPX103 (SEQ ID NO: 13) having three structures including a signal peptide, an RNA binding affinity residue, and an RNA binding residue (FIG. 1), and two zinc finger motifs. Specifically, in order to measure cell penetrating efficiency, respective peptides that may have been attached to the cell membrane surface were removed by applying a Heparin & Trypsin washing method used in a Keplan group [Kaplan I M, Wadia J S, Dowdy S F (2005) Cationic TAT peptide transduction domain enters cells by macropinocytosis. J Controlled release 102: 247-253] to a NIH3T3 cell line and mouse mesenchymal stem cells (mMSCs). […] Then, the cells were washed three times with PBS and detached with trypsin, and then FACS analysis was performed. In addition, whether each peptide actually existed in the nucleus or cytoplasm of the cell was confirmed by confocal microscopy after 18 hours of peptide treatment, and membrane binding was labeled with PKH.

NIH3T3 cells [2] = test: Glycolysis, extracellular acidification rate (ECAR), Seahorse XF analyzer; assay type: cell-based, mouse
Procedure: NIH3T3 cells were incubated in a glucose-free medium for 1 day and then sequentially treated with glucose, oligomycin, and 2-DG, and an extracellular acidification rate (ECAR) was measured as a measure of lactate production using a Seahorse extracellular flux (XF) analyzer and quantification and profile of ECAR were confirmed in cells treated with LPX peptide (Mean SEM n=3, *; p<0.05).

[3] = system: diabetic model mice (db/db); test: Blood vessel formation in diabetic wounds (histology, day 7); assay type: in vivo, mouse; conditions: once daily, day 7 after wounding
Procedure: Since diabetic ulcers were hardly treated by insufficient vascular supply due to impaired angiogenesis and ischemic necrosis, it was confirmed whether the LPX peptide contributed to blood vessel formation in diabetic wound healing. Specifically, diabetic model mice (db/db) were wounded and then treated with LPX 103 or EGF once daily, and the recovery of angiogenesis was analyzed on day 7 after wounding, and in order to visualize the extravasation of red blood cells within the tissue, the wound and entrance (red dotted box) of each group were magnified and images were confirmed.

NIH3T3 cells [4] = test: Intracellular stability, cell proliferation and migration of RNA binding / zinc finger region variants; assay type: cell-based, mouse
Procedure: The protein stability of variants with mutations in the RNA binding region and the zinc finger region was confirmed. Specifically, LPX103 variants with mutated amino acid residues for RNA binding during cell migration were treated with NIH3T3 cells for 1 day, respectively, and based on the molecular modeling program, the intracellular stabilization effect of each peptide was analyzed after 72 hours. The mutation energy of each amino acid residue was confirmed, and variants that may cause<−1 Kcal/mol due to substitution were selected as potential mutations that may increase the stability and activity of the peptide (FIGS. 23 and 24). The effects of the selected variants on cell proliferation and cell migration were confirmed in NIH3T3 cells (FIG. 25), and as a result, mutations in the RNA binding region and the zinc finger region that improved or decreased the stability of the peptide in the cell were confirmed (FIG. 26).

[5] = system: STZ-induced diabetic mouse model; test: Wound healing in STZ-induced diabetic mouse model; assay type: in vivo; conditions: 2 mg/ml (20 μl)
Procedure: (§1) The wound healing effects of LPX101, LPX102, and LPX103 were confirmed in an STZ-induced diabetic mouse model. […] Thereafter, according to a schedule shown in FIG. 12A, PBS (negative control), EGF (positive control) 50 μg/ml, LPX101 2 mg/ml (20 μl), LPX102 and LPX103 (2 mg/ml (20 μl)) were treated, respectively, and then the effect of wound healing in a diabetes-induced mouse model was confirmed through imaging, re-epithelialization, and diabetes phenotypes (hyperglycemia and impaired glucose tolerance test (IPGTT)) (n=10 for each group, *; p<0.05). Additionally, to compare the regenerative activity of LPX peptides in a diabetic mouse model, wound healing kinetics measured by a % non-epithelialized area to an initial wound area (n=8 for each group), and quantification of re-epithelialization analyzed as % of a re-epithelialized area to the initial wound area were confirmed.

diabetic mice (db/db) = test: Histological evaluation of wound re-epithelialization (H/E, day 10); assay type: in vivo, mouse; conditions: day 10 after initial injury
From the text: In order to histologically evaluate wound re-epithelialization in diabetic mice by LPX peptides 101, 102 and 103, wound tissues from diabetic mice (db/db) treated by each LPX were H/E stained on day 10 after initial injury and confirmed under a microscope (50X and 100x).

[6] = system: diabetes model mice (db/db); test: Diabetic wound healing in diabetes model mice (db/db); assay type: in vivo, mouse; conditions: db/db mouse model
Procedure: The skins of wild type (WT) mice and diabetes model mice (db/db) (n=14 each) were punched with an 8 mm diameter puncher and treated with LPX101 (2 mg/ml, 20 μl) or PBS daily for 14 days and subjected to wound dressing. The wound healing effect was confirmed by analyzing an initial wound area and a re-epithelialization area using ImageJ (mean SEM n=3, *; p<0.05). In addition, the wound healing effect in wounds treated with LPX101 was histologically evaluated. Specifically, diabetic mice (db/db) were stained with H/E or trichrome at 7 and 14 days after wound induction and then confirmed under a microscope, and re-epithelialization and granulation tissue were quantified using ImageJ (n=3, ***; p<0.001). In addition, the wounds of db/db mice were treated with LPX101, and the tissue epidermis after 14 days was histologically analyzed.
as §1

NIH3T3 cells [7] = test: Cell migration effects, Table 1; assay type: cell-based, mouse; conditions: vehicle = 1
Procedure: Various variants of the LPX peptides were prepared as illustrated in FIG. 18. Specifically, various constructs (26 constructs including 101) were prepared by adding various mutations (substitution of a CPP region, amino acid mutation of an RNA binding portion and a zinc finger structure, and addition of his-tag) to the structure of LPX101 in FIG. 19 (FIG. 20).

[8] = system: diabetic mouse model (db/db); test: Diabetic wound healing by combined treatment with EGF; assay type: in vivo; conditions: db/db mice, 8 mm punch wound
From the text: The diabetic wound healing effect by combined treatment with LPX peptide and EGF was confirmed.

[9] = system: diabetic human epidermal keratinocyte (DHEK); test: Cell migration across a scratched boundary; assay type: cell-based; conditions: DHEK cells; at lower concentrations than LPX101
Procedure: An effect of LPX101 peptide on cell growth was confirmed in a NIH3T3 cell line, and the effects of LPX101, LPX102, and LPX103 peptides on cell migration were confirmed in diabetic human epidermal keratinocyte (DHEK) as a diabetic cell line. Specifically, mMSC or NIH3T3 cells were treated with the LPX101 peptide, incubated for 1 hour, and then washed. A % increase in cell growth by LPX treatment was confirmed by measuring the number of cells after 3 days of treatment and calculating a relative proliferation rate as % compared to a control group (n=3). Additionally, in order to confirm the cell migration effect, DHEK cells were treated with LPX101, LPX102, and LPX103 peptides, incubated for 1 hour, and then washed. Thereafter, the migration of cells across a scratched boundary was measured 72 hours after treatment. The number of cells that migrated across a scratch line was measured by image analysis using ImageJ.

## LPX103: cell-penetrating peptide consisting of amino acid sequence SEQ ID NO: 13 (GSERRPKGKSMQKRRSKGDRCYNCGGLDHHAKECKL; LPX103)
[1]
  cell permeability compared to LPX101: high cell permeability similar to LPX101
NIH3T3 cells [2]
  glucose metabolism (glycolysis), ECAR: promoted glucose metabolism (glycolysis)
[3]
  capillary formation compared to EGF: more mature capillary formation
  hemorrhage (extravasation of RBC) compared to EGF: less hemorrhage (extravasation of RBC)
NIH3T3 cells [4]
  stability and biological activity: high stability and biological activity
[5]
  wound healing effect compared to LPX101: better effects than LPX101
Diabetic mice (db/db)
  re-epithelialization of diabetic wounds (histology): significantly improved re-epithelialization
[6]
  diabetic wound healing effect (wound healing kinetics and re-epithelialization) compared to LPX101: better diabetic wound healing effect than LPX101
NIH3T3 cells [7]; 1 uM
  Effects on cell migration (3 expts): 1.3
NIH3T3 cells [7]; 5 uM
  Effects on cell migration (3 expts): 1.3
[8]
  diabetic wound healing effect in combination with EGF: improved when treated in combination with EGF
[9]
  cell migration compared to LPX101: promoted cell migration to a similar extent to LPX101

From patent US20240182521A1, “CELL-PENETRATING PEPTIDE VARIANT AND USE THEREOF” (REGEN INNOPHARM INC., priority 2021, published 2024)
